The values below come from ChEMBL document CHEMBL1158254, “HIV inhibitory natural products. 26. Quinoline alkaloids from Euodia roxburghiana” (J Nat Prod, 1996).

By IC50 is commonly meant the point on the concentration scale where inhibition reaches its midpoint.

Calls of active or inactive are those of the source. No cut-off for these calls is given here.

Experiment [1] concerns Human immunodeficiency virus 1. Description: Antiviral activity against HIV1 infected in CEM-SS cells assessed as virus-induced cytopathic effect by XTT assay. It is filed as functional, organism-based. Conditions: for IC50: Human immunodeficiency virus 1, CEM-SS. (Damage to the host cells serves as the signal in cytopathic effect assays.)
The target in experiment [2] is Human immunodeficiency virus type 1 reverse transcriptase (Human immunodeficiency virus 1, UniProt Q72547). Put plainly: Inhibition of HIV1 reverse transcriptase.

For the molecule `COc1c2ccc(OCC[C@H](C)O)cc2nc2occc12`, in experiment [1], the result was inactive.

Consider `COC(=O)[C@@H](C)CCOc1ccc2c(OC)c3ccoc3nc2c1`, for which, in experiment [1], the result was inactive.

For `C=CC(C)(C)C1(CC=C(C)C)C(=O)Nc2ccccc2C1=O` (configuration not stated) [BUCHAPINE], the IC50 was found to be 29 µM in experiment [1] and 12 µM in experiment [2].

`COC(=O)/C(C)=C/COc1ccc2c(OC)c3ccoc3nc2c1`: in experiment [1], the result was inactive.

With `CC(C)=CCOc1c(CC=C(C)C)c(O)nc2ccccc12`, the half-inhibitory concentration (IC50) in experiment [1] came out at 26.9 µM; in experiment [2], 8 µM.
